Assay results from patent publication US20080171716A1, “NUCLEIC ACID MODULATION OF TOLL-LIKE RECEPTOR-MEDIATED IMMUNE STIMULATION” (Protiva Biotherapeutics, Inc., priority 2006, published 2008).
Each block holds one substance with its values, some of them ahead of it.

Experiments:
TLR7/8 = assay: Cytokine induction in human PBMCs by immunostimulatory RNA, alone or co-formulated with modified ssRNA in the same SNALP/lipid particle; format: cell-based; details: human PBMC cultures; lipid-formulated RNA alone; doses 0.1 to 3 μg/ml
Protocol: All RNA molecules used in this study were heated at 90° C. for 3 min. and then placed at 37° C. for 60 min. Non-denaturing PAGE analysis on a 20% polyacrylamide gel was performed to confirm that ssRNA molecules were intact and that no duplexes had formed upon heating. The RNA molecules were encapsulated in a SNALP formulation comprising PEG-cDMA:DLinDMA:cholesterol:DSPC in a 2:40:48:10 mol % ratio (2:40 SNALP), prepared using a syringe press process.
Fresh human peripheral blood mononuclear cells (PBMCs) were isolated and seeded at about 3×10^5 cells/well in a total volume of 180 μl. Next, 20 μl of the appropriate SNALP diluted in PBS or 10 μl of naked TLR agonist were added to the PBMCs. For time course experiments, PBMCs were pretreated with UmodS ssRNA or a control and the appropriate naked TLR agonist was added at 0, 0.5, or 2 hours after pretreatment. When the SNALP and naked TLR agonist were added separately, the SNALP was added first followed by the naked TLR agonist. At t=24 hr., the cell supernatant was harvested and IFN-α and/or IL-6 levels were determined using ELISA.
The ssRNA molecules used in this study were heated at 90° C. for 3 min. and then placed at 37° C. for 60 min to disrupt any potential secondary structure. Non-denaturing PAGE analysis on a 20% polyacrylamide gel was performed to confirm that ssRNA molecules were intact and that no duplexes had formed upon heating. siRNA duplexes were prepared by annealing equimolar concentrations of two deprotected and desalted ssRNA oligonucleotides using standard procedures. Formation of annealed siRNA duplexes was confirmed by non-denaturing PAGE analysis on a 20% polyacrylamide gel. The RNA molecules were encapsulated in a 2:40 SNALP formulation prepared using a syringe press process.
Fresh human peripheral blood mononuclear cells (PBMCs) were isolated and seeded at about 3×10^5 cells/well in a total volume of 180 μl. Next, 20 μl of the appropriate SNALP diluted in PBS were added to the PBMCs. At t=24 hr., the cell supernatant was harvested and IFN-α and/or IL-6 levels were determined using an enzyme-linked immunosorbent assay (ELISA). For example, IFN-α and IL-6 levels can be measured using a sandwich ELISA kit available from PBL Biomedical (Piscataway, N.J.) and eBioscience (San Diego, Calif.), respectively.
(§1) Lipid Encapsulation of RNA and ODN. RNA or ODN were encapsulated in liposomes by a process of spontaneous vesicle formation as described in Judge et al., supra, and Jeffs et al., Pharm. Res., 22:362-372 (2005).
Cell Isolation and Culture. Human PBMCs were isolated from whole blood of healthy donors by a standard Ficoll-Hypaque density centrifugation. Blood was diluted 1:1 with PBS, layered onto Ficoll-Paque Plus, and centrifuged at 1600 RPM for 30 min. PBMCs were washed in PBS twice followed by resuspension in complete media (RPMI 1640, 10% heat inactivated FBS, 2 mM L-glutamine, and 1% penicillin/streptomycin). PBMCs were plated at 2.5×10^5 cells/well in 96 well plates for cytokine induction assays.
(§2) Loxoribine (InvivoGen; San Diego, Calif.), polyIC (Sigma-Aldrich; St. Louis, Mo.), and formulated nucleic acids were diluted in PBS and added to either human PBMC or Flt3L DC cultures. Cells were incubated 24 h at 37° C. before supernatants were assayed for cytokines by ELISA.
(§3) Cytokine ELISA. All cytokines were quantified using sandwich ELISA kits according to the manufacturer's instructions. These were mouse and human IFN-α (PBL Biomedical; Piscataway, N.J.) and IL-6 (eBioscience; San Diego, Calif.).

TLR7 [1] = target: T1, TLR7 (Mus musculus, UniProt P58681); assay: In vivo cytokine induction by formulated ssRNA in mice; design: from tissue; host or cells: whole animal: female Balb/C mice, plasma cytokines; species or system Balb/C mice; details: IV, plasma 6 h after administration
T1 sequence (P58681 27-1050): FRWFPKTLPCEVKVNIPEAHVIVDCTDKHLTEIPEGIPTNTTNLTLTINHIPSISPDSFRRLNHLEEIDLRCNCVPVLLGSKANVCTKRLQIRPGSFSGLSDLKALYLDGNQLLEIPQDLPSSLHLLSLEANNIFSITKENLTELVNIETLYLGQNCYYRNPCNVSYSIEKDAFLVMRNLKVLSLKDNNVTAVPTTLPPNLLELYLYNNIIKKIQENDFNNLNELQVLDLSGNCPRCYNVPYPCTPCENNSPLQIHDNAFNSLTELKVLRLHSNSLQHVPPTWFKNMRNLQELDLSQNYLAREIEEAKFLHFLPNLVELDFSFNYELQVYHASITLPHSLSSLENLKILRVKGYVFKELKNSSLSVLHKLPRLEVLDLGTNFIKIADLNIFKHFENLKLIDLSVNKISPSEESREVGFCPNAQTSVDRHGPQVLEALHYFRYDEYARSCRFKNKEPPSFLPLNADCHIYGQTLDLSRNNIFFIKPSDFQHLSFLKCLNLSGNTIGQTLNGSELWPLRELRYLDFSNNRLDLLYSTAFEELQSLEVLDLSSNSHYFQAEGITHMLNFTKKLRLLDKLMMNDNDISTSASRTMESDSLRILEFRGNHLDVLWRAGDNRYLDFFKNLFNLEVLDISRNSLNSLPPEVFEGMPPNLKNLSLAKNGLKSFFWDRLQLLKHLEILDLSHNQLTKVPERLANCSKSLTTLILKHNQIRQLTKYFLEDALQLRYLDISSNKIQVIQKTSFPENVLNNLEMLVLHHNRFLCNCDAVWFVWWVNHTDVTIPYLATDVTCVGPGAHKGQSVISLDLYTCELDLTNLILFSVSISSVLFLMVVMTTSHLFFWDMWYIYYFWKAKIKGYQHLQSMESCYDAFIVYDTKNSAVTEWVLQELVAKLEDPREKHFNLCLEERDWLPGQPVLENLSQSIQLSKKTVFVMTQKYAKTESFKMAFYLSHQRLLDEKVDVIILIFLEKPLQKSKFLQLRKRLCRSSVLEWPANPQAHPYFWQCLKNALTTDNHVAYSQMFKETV
Protocol: as §3
(§4) In Vivo Cytokine Induction. Animal studies were performed at Protiva Biotherapeutics in accordance with Canadian Council on Animal Care guidelines and following protocol approval by the local Animal Care and Use Committee. Female Balb/C mice were subjected to a two-week quarantine and acclimation period prior to use at six to eight-weeks of age. RNA formulations were administered by standard injection in the lateral tail vein in 0.2 ml PBS. Six hours after injection, blood was collected by cardiac puncture and processed as plasma for cytokine analysis. In experiments studying inhibition of cytokine induction by loxoribine, formulated RNA (100 μg) was administered IV 2 h prior to IV administration of 1 mg loxoribine in PBS. Blood was collected by cardiac puncture 2 h after administration of loxoribine and processed as plasma for cytokine analysis.

TLR9 = target: T2, TLR9 (Mus musculus, UniProt Q9EQU3); assay: CpG ODN (TLR9 agonist)-induced IFN-α in murine Flt3L-derived dendritic cells; format: cell-based; details: murine Flt3L cultures; phosphodiester backbone; formulated in lipid nanoparticles
T2 construct: endogenous in cells; host or cells: Flt3L-derived dendritic cells cultured from bone marrow of female Balb/C mice
T2 sequence (Q9EQU3 26-1032): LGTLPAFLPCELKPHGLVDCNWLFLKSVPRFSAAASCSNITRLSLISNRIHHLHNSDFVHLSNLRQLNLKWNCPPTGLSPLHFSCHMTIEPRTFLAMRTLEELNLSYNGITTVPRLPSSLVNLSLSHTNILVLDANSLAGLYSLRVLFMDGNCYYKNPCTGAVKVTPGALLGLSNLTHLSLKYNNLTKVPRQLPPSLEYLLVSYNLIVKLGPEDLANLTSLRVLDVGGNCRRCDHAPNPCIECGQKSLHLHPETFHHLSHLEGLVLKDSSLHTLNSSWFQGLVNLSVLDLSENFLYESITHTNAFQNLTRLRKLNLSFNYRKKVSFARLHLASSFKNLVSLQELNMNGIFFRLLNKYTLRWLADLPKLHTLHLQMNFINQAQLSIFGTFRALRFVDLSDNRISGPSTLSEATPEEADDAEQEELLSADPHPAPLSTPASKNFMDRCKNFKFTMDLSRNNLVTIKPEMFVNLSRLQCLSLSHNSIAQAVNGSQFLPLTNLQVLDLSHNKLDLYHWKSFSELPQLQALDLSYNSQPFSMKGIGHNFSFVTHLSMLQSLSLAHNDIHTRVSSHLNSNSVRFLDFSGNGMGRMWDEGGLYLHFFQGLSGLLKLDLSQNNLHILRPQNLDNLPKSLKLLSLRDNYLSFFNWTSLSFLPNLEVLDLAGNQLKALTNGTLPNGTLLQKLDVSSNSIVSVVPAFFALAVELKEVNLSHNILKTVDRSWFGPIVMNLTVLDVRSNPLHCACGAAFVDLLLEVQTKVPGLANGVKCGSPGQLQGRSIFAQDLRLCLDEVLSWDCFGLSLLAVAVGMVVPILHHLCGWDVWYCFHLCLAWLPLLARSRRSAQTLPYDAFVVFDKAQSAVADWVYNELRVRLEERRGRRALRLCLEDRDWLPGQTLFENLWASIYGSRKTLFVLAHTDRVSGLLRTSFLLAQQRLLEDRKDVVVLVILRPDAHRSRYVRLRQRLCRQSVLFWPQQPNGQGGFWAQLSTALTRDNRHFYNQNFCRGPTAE
Protocol: as §1
Flt3L-derived dendritic cells (DC) were generated as described in Gilliet et al., J. Exp. Med., 195:953-958 (2002), using 100 ng/ml murine Flt3-ligand (Peprotech) supplemented media. Femurs and tibiae of female Balb/C mice were isolated and rinsed in sterile PBS. The ends of bones were cut and marrow harvested in complete media (RPMI 1640, 10% heat inactivated FBS, 1% penicillin/streptomycin, 2 mM L-glutamine, 1 mM sodium pyruvate, 25 mM HEPES, 50 μM 2-mercaptoethanol). Bone marrow cells were passed through a 70 μm strainer and centrifuged at 1000 rpm for 7 min. and resuspended in complete media supplemented with 100 ng/ml murine Flt3L to 2×10^6 cells/ml. 2 ml of cells were seeded in 6-well plates and 1 ml fresh media was added every two to three days. On day 9 of culture, non-adherent cells were washed in complete media and plated into 96-well plates at concentrations ranging from 0.5 to 2.5×10^5 cells/well.
as §2, §3

TLR7 [2] = target: T1, TLR7; assay: In vivo inhibition of loxoribine-mediated cytokine induction in mice; design: from tissue; host or cells: whole animal: female Balb/C mice, plasma cytokines; species or system Balb/C mice; details: 100 μg formulated RNA IV 2 h prior to 1 mg Lox
Protocol: as §3, §4

Substance: βgal-AS: immunostimulatory ssRNA: AAAUCGCUGAUUUGUGUAGUU (chemistry not given here) [reference compound]
IFN-α production induced by the RNA alone (TLR7/8): induced high levels of IFN-α
plasma IFN-α after administration of the formulated RNA alone (TLR7 [1]): significant elevations
plasma IL-6 after administration of the formulated RNA alone (TLR7 [1]): significant elevations

Substance: ODN M362: CpG Type C ODN, phosphodiester: TCGTCGTCGTTCGAACGACGTTGAT (DNA, all phosphodiester, methylation of C not given here; formulated in lipid nanoparticles)
immunostimulatory activity of the ODN alone (TLR9): highly immunostimulatory

immunostimulatory activity of the ODN alone (TLR9): highly immunostimulatory
Substance: ODN 1826

Substance: ODN 6295: CpG Type A ODN, phosphodiester: TAACGTTGAGGGGCAT (DNA, all phosphodiester, methylation of C not given here; formulated in lipid nanoparticles)
immunostimulatory activity of the ODN alone (TLR9): highly immunostimulatory

Substance: GFP-S: native non-stimulatory ssRNA: GGCUACGUCCAGGAGCGCAUU (RNA, backbone not given here) [reference compound]
response to loxoribine (plasma IFN-α and IL-6) after pre-treatment (TLR7 [2]): robust response
